Read-outs that look alike come from different tables or passages of the source.
How the values were obtained:
[1] = molecular target: T1, catalytic domain of human stromelysine (Homo sapiens, UniProt P08254); experiment: Enzyme inhibition, catalytic domain of human stromelysine (fluorogenic substrate); type: biochemical; details: read-out: Stromelysine IC 50
T1 construct: enzymatic activity of the catalytic domains of human stomelysine and of neutrophil collagenase; made in house
Protocol: (§1) Preparation and determination of the enzymatic activity of the catalytic domains of human stomelysine and of neutrophil collagenase.
(§2) The two enzymes were prepared according to Ye et al., (Biochemistry 31 (1992) 11231-5). To measure the enzyme activity or enzyme inhibitor action, 70 μl of buffer solution and 10 μl of enzyme solution are incubated for 15 minutes with 10 μl of a 10% strength (v/v) aqueous dimethyl sulfoxide solution, which optionally contains the enzyme inhibitor. After addition of 10 μl of a 10% strength (v/v) aqueous dimethyl sulfoxide solution which contains 1 mmol/l of the substrate, the enzyme reaction is monitored by fluorescence spectroscopy (328 nm (ex)/393 nm(em)). The enzyme activity is shown as extinction increase/minute. […] The buffer solution contains 0.05% of Brij (Sigma, Deisenhofen, Germany) and also 0.1 mol/l of tris/HCl, 0.1 mol/l of NaCl, 0.01 mol/l of CaCl2 (pH=7.5) for the determination of the hydroxamic acids up to and including Example 33, or, for the determination of the carboxylic acids from Example 34, 0.1 mol/l of piperazine-N,N′-bis[2-ethanesulfonic acid] pH=6.5.
(§3) The enzyme solution contains 5 μg/ml of one of the enzyme domains prepared according to Ye et al. The substrate solution contains 1 mmol/l of the fluorogenic substrate (7-methoxycoumarin-4-yl)acetyl-Pro-Leu-Gly-Leu-3-(2′,4′-dinitrophenyl)-L-2,3-diaminopropionyl-Ala-Arg-NH2 (Bachem, Heidelberg, Germany).

[2] = molecular target: T2, catalytic domain of neutrophil collagenase (Homo sapiens, UniProt P22894); experiment: Enzyme inhibition, catalytic domain of neutrophil collagenase (fluorogenic substrate); type: biochemical; details: read-out: Neutrophil collagenase IC 50
T2 construct: enzymatic activity of the catalytic domains of human stomelysine and of neutrophil collagenase; made in house
T2 sequence (P22894 100-262 limits assumed): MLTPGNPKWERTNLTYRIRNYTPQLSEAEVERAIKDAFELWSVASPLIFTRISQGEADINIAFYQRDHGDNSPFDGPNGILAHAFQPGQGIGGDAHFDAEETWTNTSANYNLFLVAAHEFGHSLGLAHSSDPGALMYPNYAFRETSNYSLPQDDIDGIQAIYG
Protocol: as §1, §2, §3

[3] = carboxylic acids from Example 34, piperazine-N,N'-bis[2-ethanesulfonic acid] buffer pH=6.5
[4] = hydroxamic acids up to and including Example 33, tris/HCl buffer pH=7.5

T1 sequence (P08254 100-272 limits assumed): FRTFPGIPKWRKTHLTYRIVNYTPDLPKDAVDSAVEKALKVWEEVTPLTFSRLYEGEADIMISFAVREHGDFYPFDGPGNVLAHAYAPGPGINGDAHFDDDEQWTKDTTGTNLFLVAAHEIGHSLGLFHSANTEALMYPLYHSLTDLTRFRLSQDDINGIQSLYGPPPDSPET

SMILES | IC50 [1, 3] [nM] | IC50 [2, 3] [nM] | melting point | IC50 [1, 4] [nM] | IC50 [2, 4] [nM]
O=C(O)[C@H]1Cc2ccccc2CN1S(=O)(=O)c1ccc(Oc2ccccc2)cc1 [41 (13b), R-2-(4-phenoxybenzenesulfonyl)-1,2,3,4-tetrahydroisoquinoline-3-carboxylic acid] | 200 | 9 | 147 °C |  | 
O=C(NO)C1Cc2ccccc2CN1S(=O)(=O)c1ccccc1 (centres unmarked) [Example 1] |  |  |  | 300 | 
O=C(NO)[C@H]1Cc2ccccc2CN1S(=O)(=O)c1ccc(-c2ccc(Cl)cc2)cc1 [Example 3] |  |  |  | 30 | 2
CC(=O)Nc1ccc(S(=O)(=O)N2Cc3ccccc3CC2C(=O)NO)cc1 (centres unmarked) [Example 4] |  |  |  | 700 | 100
CCOC(=O)Nc1cccc(S(=O)(=O)N2Cc3ccccc3CC2C(=O)NO)c1 (centres unmarked) [Example 5] |  |  |  | 6000 | 
CCOC(=O)Nc1ccc(S(=O)(=O)N2Cc3ccccc3CC2C(=O)NO)cc1 (centres unmarked) [Example 6] |  |  |  | 500 | 30
COc1ccc(CC(=O)Nc2cccc(S(=O)(=O)N3Cc4ccccc4CC3C(=O)NO)c2)cc1 (centres unmarked) [Example 8] |  |  |  | 3000 | 200
O=C(NO)[C@H]1Cc2ccccc2CN1S(=O)(=O)C1=CC2=CC=CCC2C=C1 (some centres unmarked) [Example 11] |  |  |  | 400 | 70
CN(C)c1cccc2c(S(=O)(=O)N3Cc4ccccc4C[C@@H]3C(=O)NO)cccc12 [Example 12] |  |  |  | 400 | 200
O=C(NO)[C@H]1Cc2ccccc2CN1S(=O)(=O)c1ccc2oc3ccccc3c2c1 [Example 15] |  |  |  | 100 | 10
O=C(NO)C1Cc2ccccc2CN1S(=O)(=O)CCc1ccccc1 (centres unmarked) [Example 17] |  |  |  | 100 | 
O=C(NO)C1Cc2ccccc2CN1S(=O)(=O)c1ccc(C(O)c2ccccc2)cc1 (centres unmarked) [Example 19] |  |  |  | 2000 | 300
COc1ccc(S(=O)(=O)Oc2ccc3c(c2)CN(S(=O)(=O)c2ccc(OC)cc2)[C@@H](C(=O)NO)C3)cc1 [Example 22] |  |  |  | 30 | 8
COc1ccc(S(=O)(=O)N2Cc3cc([N+](=O)[O-])ccc3CC2C(=O)NO)cc1 (centres unmarked) [Example 23] |  |  |  | 80 | 8
COc1ccc(S(=O)(=O)N2Cc3cc4c(cc3CC2C(=O)NO)OCO4)cc1 (centres unmarked) [Example 24, 2-(4-Methoxybenzenesulfonyl)-6,7-methylenedioxy-1,2,3,4-tetrahydroisoquinoline-3-hydroxamic acid] |  |  | 166 °C | 60 | 20
COc1ccc(S(=O)(=O)N2Cc3c(cc(OC)c(OC)c3OC)CC2C(=O)NO)cc1 (centres unmarked) [Example 25, 2-(4-Methoxybenzenesulfonyl)-6,7,8-trimethoxy-1,2,3,4-tetrahydroisoquinoline-3-hydroxamic acid] |  |  |  | 400 | 300
O=C(NO)C1Cc2ccccc2CN1S(=O)(=O)N1CCOCC1 (centres unmarked) [Example 26, 2-(Morpholinosulfonyl)-1,2,3,4-tetrahydroisoquinoline-3-hydroxamic acid] |  |  |  | 6000 | 300
COc1ccc(S(=O)(=O)N2CCc3cc4c(cc3C2C(=O)NO)CCC4)cc1 (centres unmarked) [Example 27] |  |  |  | 30 | 4
COc1ccc(S(=O)(=O)N2c3ccccc3CC2C(=O)NO)cc1 (centres unmarked) [Example 28, 1-(4-Methoxybenzenesulfonyl)indoline-2-hydroxamic acid] |  |  | 142 °C | 2000 | 700

SMILES | IC50 [1, 3] [nM] | IC50 [2, 3] [nM] | melting point | IC50 [1, 4] [nM] | IC50 [2, 4] [nM]
COc1ccc(S(=O)(=O)N2Cc3[nH]c4ccccc4c3C[C@@H]2C(=O)NO)cc1 [Example 31, R-2-(4-methoxybenzenesulfonyl)-1,2,3,4-tetrahydro-9H-pyrido-(3,4-b)-indole-3-hydroxamic acid] |  |  |  | 20 | 3
O=C(NO)[C@H]1Cc2c([nH]c3ccccc23)CN1S(=O)(=O)c1ccc(Oc2ccccc2)cc1 [Example 32, R-2-(4-phenoxybenzenesulfonyl)-1,2,3,4-tetrahydro-9H-pyrido(3,4-b)-indole-3-hydroxamic acid] |  |  | 110 to 111 °C | 60 | 
O=C(NO)[C@H]1Cc2c([nH]c3ccccc23)CN1S(=O)(=O)c1ccc(N2CCOCC2)cc1 [Example 33, R-2-(4-morpholinobenzenesulfonyl)-1,2,3,4-tetrahydro-9H-pyrido(3,4-b)-indole-3-hydroxamic acid] |  |  | 125 °C (dec.) | 300 | 70
O=C(O)[C@H]1Cc2ccccc2CN1S(=O)(=O)c1ccc(-c2ccccc2)cc1 [Example 34] | 500 | 10 | 205 °C |  | 
O=C(O)[C@H]1Cc2ccccc2CN1S(=O)(=O)c1ccc(-c2ccc(Cl)cc2)cc1 [Example 35] | 100 | 5 | 207 to 209 °C |  | 
O=C(O)[C@@H]1Cc2ccccc2CN1S(=O)(=O)c1ccc(-c2ccc(Cl)cc2)cc1 [Example 36] |  | 3000 |  |  | 
CN(C)c1ccc(-c2ccc(S(=O)(=O)N3Cc4ccccc4C[C@@H]3C(=O)O)cc2)cc1.Cl [Example 39] | 100 | 1 | 122 to 135 °C |  | 
O=C(O)[C@H]1Cc2ccccc2CN1S(=O)(=O)c1ccc(Oc2ccc(Cl)cc2)cc1 [Example 42, R-2-[4-(4-chlorophenoxy)benzenesulfonyl]-1,2,3,4-tetrahydroisoquinoline-3-carboxylic acid] | 500 | 20 | 167 to 168 °C |  | 
O=C(O)[C@H]1Cc2ccccc2CN1S(=O)(=O)c1ccc(Sc2ccccc2)cc1 [Example 43] | 20000 | 200 |  |  | 
O=C(O)[C@H]1Cc2ccccc2CN1S(=O)(=O)c1ccc(OCc2ccc(F)cc2)cc1 [Example 44] | 200 | 30 |  |  | 
O=C(c1ccccc1)c1ccc(S(=O)(=O)N2Cc3ccccc3C[C@@H]2C(=O)O)cc1 [Example 45] | 3000 | 300 |  |  | 
O=C(O)[C@H]1Cc2ccccc2CN1S(=O)(=O)c1ccc2oc3ccccc3c2c1 [Example 46] | 3000 | 300 | 218 to 219 °C |  | 
O=C(O)[C@H]1Cc2ccccc2CN1S(=O)(=O)c1ccc(-c2nc3ccccc3o2)cc1 [Example 47] |  |  | 211 to 213 °C |  | 
O=C(O)[C@H]1Cc2ccc([N+](=O)[O-])cc2CN1S(=O)(=O)c1ccc(-c2ccc(Cl)cc2)cc1 [Example 50] | 600 | 30 |  |  | 
O=C(O)[C@H]1Cc2cc([N+](=O)[O-])ccc2CN1S(=O)(=O)c1ccc(-c2ccc(Cl)cc2)cc1 [Example 51] | 500 | 20 |  |  | 
O=C(O)[C@H]1Cc2ccc([N+](=O)[O-])cc2CN1S(=O)(=O)c1ccc(-c2ccc(F)cc2)cc1 [Example 52] | 1000 | 40 |  |  | 
O=C(O)[C@H]1Cc2cc([N+](=O)[O-])ccc2CN1S(=O)(=O)c1ccc(-c2ccc(F)cc2)cc1 [Example 53] | 500 | 20 |  |  | 
O=C(O)[C@H]1Cc2cc3c(cc2CN1S(=O)(=O)c1ccc(Oc2ccccc2)cc1)OCO3 [Example 54] |  |  | 226 to 228 °C |  | 
O=C(O)[C@H]1Cc2c([nH]c3ccccc23)CN1S(=O)(=O)c1ccc(Oc2ccccc2)cc1 [Example 57] | 2000 | 100 | 115 °C |  | 

— patent publication US6815440B2, “Cyclic and heterocyclic N-substituted α-iminohydroxamic and -carboxylic acids” (Aventis Pharma Deutschland GmbH, priority 1995, dated 2004)
